In PubChem BioAssay (NCI):
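GI50: concentration for 50% inhibition of growth. At the TGI there is no net growth.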

Tests used:
Assay in all cases: growth of human tumour cells (NCI), 384-well format
M14 melanoma = test system: M14 melanoma
SR leukemia = test system: SR leukemia
MDA-MB-435 melanoma = test system: MDA-MB-435 melanoma
MOLT-4 leukemia = test system: MOLT-4 leukemia
UO-31 renal = test system: UO-31 renal
PC-3 prostate = test system: PC-3 prostate
U251 glioblastoma = test system: U251 glioblastoma
DU-145 prostate = test system: DU-145 prostate
CAKI-1 renal = test system: CAKI-1 renal
SNB-19 CNS = test system: SNB-19 CNS
MALME-3M melanoma = test system: MALME-3M melanoma
SF-539 CNS = test system: SF-539 CNS
MDA-MB-468 breast = test system: MDA-MB-468 breast
NCI-H522 lung = test system: NCI-H522 lung
HOP-62 NSCLC = test system: HOP-62 NSCLC
SK-MEL-2 melanoma = test system: SK-MEL-2 melanoma
MCF7 breast = test system: MCF7 breast
SK-OV-3 ovarian = test system: SK-OV-3 ovarian
EKVX NSCLC = test system: EKVX NSCLC
HL-60(TB) leukemia = test system: HL-60(TB) leukemia
K-562 leukemia = test system: K-562 leukemia
NCI/ADR-RES ovarian = test system: NCI/ADR-RES ovarian
RXF 393 renal = test system: RXF 393 renal
SK-MEL-28 melanoma = test system: SK-MEL-28 melanoma
786-0 renal = test system: 786-0 renal
MDA-MB-231 breast = test system: MDA-MB-231 breast
UACC-257 melanoma = test system: UACC-257 melanoma
UACC-62 melanoma = test system: UACC-62 melanoma
OVCAR-3 ovarian = test system: OVCAR-3 ovarian
NCI-H322M lung = test system: NCI-H322M lung
HT29 colon = test system: HT29 colon
NCI-H460 NSCLC = test system: NCI-H460 NSCLC
SF-268 CNS = test system: SF-268 CNS
SW-620 colon = test system: SW-620 colon
IGROV1 ovarian = test system: IGROV1 ovarian
A498 renal = test system: A498 renal
T-47D breast = test system: T-47D breast
A549 NSCLC = test system: A549 NSCLC
OVCAR-8 ovarian = test system: OVCAR-8 ovarian
COLO 205 colon = test system: COLO 205 colon
OVCAR-5 ovarian = test system: OVCAR-5 ovarian
OVCAR-4 ovarian = test system: OVCAR-4 ovarian
HCT-15 colon = test system: HCT-15 colon
NCI-H23 lung = test system: NCI-H23 lung
SN12C renal = test system: SN12C renal
BT-549 breast = test system: BT-549 breast
RPMI-8226 leukemia = test system: RPMI-8226 leukemia

Compound: COc1cc2nc(C)nc(N[C@H](C)c3cc(N)cc(C(F)(F)F)c3)c2cc1O[C@H]1CCOC1
- GI50 (M14 melanoma): 11.7 µM
- TGI (M14 melanoma): 23.9 µM
- GI50 (SR leukemia): 1.54 µM
- TGI (SR leukemia): 8.64 µM
- GI50 (MDA-MB-435 melanoma): 14.5 µM
- TGI (MDA-MB-435 melanoma): 27.6 µM
- GI50 (MOLT-4 leukemia): 4.45 µM
- TGI (MOLT-4 leukemia): 17.4 µM
- GI50 (UO-31 renal): 12.2 µM
- TGI (UO-31 renal): 24.7 µM
- GI50 (PC-3 prostate): 11 µM
- TGI (PC-3 prostate): 23.1 µM
- GI50 (U251 glioblastoma): 10.9 µM
- TGI (U251 glioblastoma): 22.8 µM
- GI50 (DU-145 prostate): 14.6 µM
- TGI (DU-145 prostate): 27.9 µM
- GI50 (CAKI-1 renal): 1.97 µM
- TGI (CAKI-1 renal): 17 µM
- GI50 (SNB-19 CNS): 12.5 µM
- TGI (SNB-19 CNS): 25.1 µM
- GI50 (MALME-3M melanoma): 8.63 µM
- TGI (MALME-3M melanoma): 21.1 µM
- GI50 (SF-539 CNS): 12.7 µM
- TGI (SF-539 CNS): 25.3 µM
- GI50 (MDA-MB-468 breast): 1.35 µM
- TGI (MDA-MB-468 breast): 11.3 µM
- GI50 (NCI-H522 lung): 2.34 µM
- TGI (NCI-H522 lung): 19.4 µM
- GI50 (HOP-62 NSCLC): 6.98 µM
- TGI (HOP-62 NSCLC): 20.1 µM
- GI50 (SK-MEL-2 melanoma): 11.1 µM
- TGI (SK-MEL-2 melanoma): 23.1 µM
- GI50 (MCF7 breast): 11.3 µM
- TGI (MCF7 breast): 23.5 µM
- GI50 (SK-OV-3 ovarian): 12.5 µM
- TGI (SK-OV-3 ovarian): 25.1 µM
- GI50 (EKVX NSCLC): 2.73 µM
- TGI (EKVX NSCLC): 16.2 µM
- GI50 (HL-60(TB) leukemia): 3.91 µM
- TGI (HL-60(TB) leukemia): 14.4 µM
- GI50 (K-562 leukemia): 0.0364 µM
- TGI (K-562 leukemia): 12.5 µM
- GI50 (NCI/ADR-RES ovarian): 12.5 µM
- TGI (NCI/ADR-RES ovarian): 25.4 µM
- GI50 (RXF 393 renal): 2.43 µM
- TGI (RXF 393 renal): 12.1 µM
- GI50 (SK-MEL-28 melanoma): 12.6 µM
- TGI (SK-MEL-28 melanoma): 25.2 µM
- GI50 ([…]-0 renal): 11.8 µM
- TGI (786-0 renal): 24.2 µM
- GI50 (MDA-MB-231 breast): 13.5 µM
- TGI (MDA-MB-231 breast): 26.6 µM
- GI50 (UACC-257 melanoma): 4.86 µM
- TGI (UACC-257 melanoma): 16.6 µM
- GI50 (UACC-62 melanoma): 13.4 µM
- TGI (UACC-62 melanoma): 26.2 µM
- GI50 (OVCAR-3 ovarian): 6.28 µM
- TGI (OVCAR-3 ovarian): 20.1 µM
- GI50 (NCI-H322M lung): 11.1 µM
- TGI (NCI-H322M lung): 23.1 µM
- GI50 (HT29 colon): 4.69 µM
- TGI (HT29 colon): 16.2 µM
- GI50 (NCI-H460 NSCLC): 12 µM
- TGI (NCI-H460 NSCLC): 24.6 µM
- GI50 (SF-268 CNS): 13.5 µM
- TGI (SF-268 CNS): 26.3 µM
- GI50 (SW-620 colon): 14.1 µM
- TGI (SW-620 colon): 27.2 µM
- GI50 (IGROV1 ovarian): 8.69 µM
- TGI (IGROV1 ovarian): 21.5 µM
- GI50 (A498 renal): 8.87 µM
- TGI (A498 renal): 21.3 µM
- GI50 (T-47D breast): 10.2 µM
- TGI (T-47D breast): 21.9 µM
- GI50 (A549 NSCLC): 14.5 µM
- TGI (A549 NSCLC): 27.8 µM
- GI50 (OVCAR-8 ovarian): 12.7 µM
- TGI (OVCAR-8 ovarian): 25.3 µM
- GI50 (COLO 205 colon): 14 µM
- TGI (COLO 205 colon): 27.1 µM
- GI50 (OVCAR-5 ovarian): 11 µM
- TGI (OVCAR-5 ovarian): 23.1 µM
- GI50 (OVCAR-4 ovarian): 8.7 µM
- TGI (OVCAR-4 ovarian): 21.4 µM
- GI50 (HCT-15 colon): 11.6 µM
- TGI (HCT-15 colon): 23.9 µM
- GI50 (NCI-H23 lung): 3.42 µM
- TGI (NCI-H23 lung): 17.7 µM
- GI50 (SN12C renal): 2.86 µM
- TGI (SN12C renal): 18.2 µM
- GI50 (BT-549 breast): 8.77 µM
- TGI (BT-549 breast): 21.2 µM
- GI50 (RPMI-8226 leukemia): 2.13 µM
- TGI (RPMI-8226 leukemia): 13.2 µM
